In US20250154115A1, “ARYLBENZOISOXAZOLE COMPOUNDS AS IP6K AND IPMK INHIBITORS AND METHODS OF USE THEREOF” (THE UNIVERSITY OF NORTH CAROLINA AT CHAPEL HILL, priority 2022, published 2025):
One block for each molecule: values may come before it.

How the values were obtained:
Assay type in all cases: biochemical
[1] = biological target: IP6K1 (Homo sapiens (Human), UniProt Q92551); experiment: Enzyme-coupled assay of IP6K1 activity (Dipp1-coupled, malachite green Pi release)
Experimental: (§1) […] The cells were disrupted using a constant cell disruption system (Constant Systems) under 20 kPsi.
(§2) Pi release was determined with a malachite green colorimetric assay.^45 Where indicated, TNP (Cayman Chemical) was added to the assays (FIG. 2A-E).

[2] = biological target: IP6K2 (Homo sapiens (Human), UniProt Q9UHH9); experiment: Enzyme-coupled assay of IP6K2 activity (Dipp1-coupled, malachite green Pi release)
Experimental: as §1, §2

[3] = biological target: IPMK (Homo sapiens (Human), UniProt Q8NFU5); experiment: Enzyme-coupled assay, IPMK IC50
[4] = determined from enzyme-coupled assays

Chain of IPMK (Q8NFU5 whole entry, species assumed): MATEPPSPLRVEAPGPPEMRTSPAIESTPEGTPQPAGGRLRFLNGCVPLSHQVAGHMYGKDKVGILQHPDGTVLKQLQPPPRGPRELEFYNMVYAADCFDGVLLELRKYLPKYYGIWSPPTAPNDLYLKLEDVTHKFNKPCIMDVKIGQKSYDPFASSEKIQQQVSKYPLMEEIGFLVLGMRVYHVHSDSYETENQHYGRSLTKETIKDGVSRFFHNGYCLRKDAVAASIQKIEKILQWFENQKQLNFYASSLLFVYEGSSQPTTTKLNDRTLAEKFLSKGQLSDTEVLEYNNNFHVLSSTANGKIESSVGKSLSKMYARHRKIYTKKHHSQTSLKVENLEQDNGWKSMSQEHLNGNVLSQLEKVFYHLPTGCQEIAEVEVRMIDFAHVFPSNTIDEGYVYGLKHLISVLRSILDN
Chain of IP6K1 (Q92551 whole entry): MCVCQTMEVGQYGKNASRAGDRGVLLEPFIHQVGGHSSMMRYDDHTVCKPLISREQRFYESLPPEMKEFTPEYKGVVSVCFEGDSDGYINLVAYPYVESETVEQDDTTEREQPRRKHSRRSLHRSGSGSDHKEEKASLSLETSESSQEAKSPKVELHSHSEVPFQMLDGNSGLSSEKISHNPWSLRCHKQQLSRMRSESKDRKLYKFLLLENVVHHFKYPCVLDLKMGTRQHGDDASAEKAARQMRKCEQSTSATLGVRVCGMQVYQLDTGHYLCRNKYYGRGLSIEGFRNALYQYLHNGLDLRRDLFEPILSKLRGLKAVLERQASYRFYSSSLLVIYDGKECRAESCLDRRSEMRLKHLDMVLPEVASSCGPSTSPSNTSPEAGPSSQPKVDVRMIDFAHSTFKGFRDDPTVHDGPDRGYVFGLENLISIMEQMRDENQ
Chain of IP6K2 (Q9UHH9 whole entry): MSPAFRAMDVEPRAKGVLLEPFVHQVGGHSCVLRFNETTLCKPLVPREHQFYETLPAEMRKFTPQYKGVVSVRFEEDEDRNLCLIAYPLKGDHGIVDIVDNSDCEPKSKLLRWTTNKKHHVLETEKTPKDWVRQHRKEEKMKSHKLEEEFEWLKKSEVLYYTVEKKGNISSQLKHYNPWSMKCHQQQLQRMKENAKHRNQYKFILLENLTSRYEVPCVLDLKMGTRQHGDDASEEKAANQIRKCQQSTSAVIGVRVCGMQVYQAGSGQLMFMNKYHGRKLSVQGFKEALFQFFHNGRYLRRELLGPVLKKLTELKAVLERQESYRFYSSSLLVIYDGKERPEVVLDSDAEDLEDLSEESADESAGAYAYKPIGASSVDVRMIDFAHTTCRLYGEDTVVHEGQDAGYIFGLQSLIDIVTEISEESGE

SMILES: CC1(COc2cccc(-c3onc4ccc(-c5nnn[nH]5)cc34)c2)COC1 [Cmpd 91]
- IC50 ([1]; enzyme-coupled assay, Table 4): 10 to 100 nM
- IC50 ([2]; enzyme-coupled assay, Table 4): 10 to 100 nM

SMILES: CCOC(=O)/C=C/c1ccc2noc(-c3ccccc3)c2c1 [Compound 7]
- IC50 ([1]; enzyme-coupled assay, Table 1): 1000 to 100000 nM
- IC50 ([2]; enzyme-coupled assay, Table 1): 1000 to 100000 nM

SMILES: CNC(=O)c1ccc2noc(-c3ccccc3)c2c1 [Compound 21]
- IPMK IC50 ([3]; enzyme-coupled assay, Table 2): −

SMILES: CNC(=O)c1ccc2noc(-c3cccc(Oc4ncc(Cl)cc4Cl)c3)c2c1 [Compound 31]
- IC50 ([1]; enzyme-coupled assay, Table 2): 100 to 1000 nM
- IC50 ([2]; enzyme-coupled assay, Table 2): 100 to 1000 nM
- IC50 ([3]; enzyme-coupled assay, Table 2): 1000 to 100000 nM

SMILES: CN1CCC(NC(=O)c2ccc(-c3onc4ccc(C(=O)O)cc34)cc2)CC1 [Compound 40]
- IC50 ([1]; enzyme-coupled assay, Table 2): 1000 to 100000 nM
- IC50 ([2]; enzyme-coupled assay, Table 2): 1000 to 100000 nM
- IPMK IC50 ([3]; enzyme-coupled assay, Table 2): −

SMILES: CC(C)C(=O)Nc1cccc(-c2onc3ccc(C(=O)O)cc23)c1 [Compound 50]
- IC50 ([1]; enzyme-coupled assay, Table 2): 1000 to 100000 nM
- IC50 ([2]; enzyme-coupled assay, Table 2): 100 to 1000 nM
- IC50 ([3]; enzyme-coupled assay, Table 2): 100 to 1000 nM

SMILES: O=C(O)c1ccc2noc(-c3cccc(-c4cccc(Cl)c4)c3)c2c1 [Compound 51]
- IC50 ([1]; enzyme-coupled assay, Table 2): 100 to 1000 nM
- IC50 ([2]; enzyme-coupled assay, Table 2): 100 to 1000 nM
- IC50 ([3]; enzyme-coupled assay, Table 2): 10 to 100 nM

SMILES: COc1ccc(COc2cncc(-c3cccc(-c4onc5ccc(C(=O)O)cc45)c3)c2)cc1 [Compound 52]
- IC50 ([1]; enzyme-coupled assay, Table 2): 100 to 1000 nM
- IC50 ([2]; enzyme-coupled assay, Table 2): 100 to 1000 nM
- IC50 ([3]; enzyme-coupled assay, Table 2): 100 to 1000 nM

SMILES: O=C(O)c1ccc2noc(-c3cccc(-c4cncc(O)c4)c3)c2c1 [Compound 53]
- IC50 ([1]; enzyme-coupled assay, Table 2): 100 to 1000 nM
- IC50 ([2]; enzyme-coupled assay, Table 2): 100 to 1000 nM

SMILES: c1cc(OC2CCN(C3CCC3)CC2)cc(-c2onc3ccc(-c4nnn[nH]4)cc23)c1 [Compound 62]
- IC50 ([2]; enzyme-coupled assay, Table 4): 100 to 1000 nM
- IC50 ([3]; enzyme-coupled assay, Table 4): 10 to 100 nM

SMILES: Clc1ccc(-c2cccc(-c3onc4ccc(-c5nnn[nH]5)cc34)c2)c(Cl)c1 [Compound 84]
- IC50 ([1]; enzyme-coupled assay, Table 4): 10 to 100 nM
- IC50 ([2]; enzyme-coupled assay, Table 4): 10 to 100 nM
- IC50 ([3]; enzyme-coupled assay, Table 4): 10 to 100 nM

SMILES: CC(=O)N1CCC(Oc2cccc(-c3onc4ccc(-c5nnn[nH]5)cc34)c2)CC1 [Compound 85, 1-(4-(3-(5-(1H-tetrazol-5-yl)benzo[c]isoxazol-3-yl)phenoxy)piperidin-1-yl)ethan-1-one]
- IC50 ([1]; enzyme-coupled assay, Table 4): < 10 nM
- IC50 ([2]; enzyme-coupled assay, Table 4): 10 to 100 nM
- IC50 ([3]; enzyme-coupled assay, Table 4): 10 to 100 nM

Further lines, results first:

- IC50 [1, 4]: 10 to 100 nM
- IC50 [2, 4]: 10 to 100 nM
- IC50 [3, 4]: 10 to 100 nM
SMILES: O=c1[nH]c(-c2ccc3noc(-c4cccc(Oc5ncc(Cl)cc5Cl)c4)c3c2)no1 [Cmpd 127]

- IC50 [1, 4]: 10 to 100 nM
- IC50 [2, 4]: 10 to 100 nM
- IC50 [3, 4]: 10 to 100 nM
SMILES: CC(C)(C)OC(=O)N1CCC(Oc2cccc(-c3onc4ccc(-c5noc(=O)[nH]5)cc34)c2)CC1 [Cmpd 128]

- IC50 [1, 4]: 10 to 100 nM
- IC50 [2, 4]: 10 to 100 nM
- IC50 [3, 4]: < 10 nM
SMILES: O=c1[nH]c(-c2ccc3noc(-c4cccc(OC5CCNCC5)c4)c3c2)no1 [Cmpd 129]

- IC50 [1, 4]: < 10 nM
- IC50 [2, 4]: < 10 nM
- IC50 [3, 4]: 10 to 100 nM
SMILES: O=C(Nc1ccc(-c2onc3ccc(-c4noc(=O)[nH]4)cc23)cc1)C1CCCC1 [Cmpd 130]

- IC50 [1, 4]: 100 to 1000 nM
- IC50 [2, 4]: 100 to 1000 nM
- IC50 [3, 4]: 100 to 1000 nM
SMILES: CN1CCC(Oc2cccc(-c3onc4ccc(-c5noc(=O)[nH]5)cc34)c2)CC1 [Cmpd 131]

- IC50 [1, 4]: 100 to 1000 nM
- IC50 [2, 4]: 100 to 1000 nM
- IC50 [3, 4]: 10 to 100 nM
SMILES: O=c1[nH]c(-c2ccc3noc(-c4cccc(OC5CCN(CC6CC6)CC5)c4)c3c2)no1 [Cmpd 132]

- IC50 [1, 4]: 100 to 1000 nM
- IC50 [2, 4]: 100 to 1000 nM
- IC50 [3, 4]: 10 to 100 nM
SMILES: O=c1[nH]c(-c2ccc3noc(-c4cccc(OC5CCN(C6CCC6)CC5)c4)c3c2)no1 [Cmpd 133]

- IC50 [1, 4]: 100 to 1000 nM
- IC50 [2, 4]: 100 to 1000 nM
- IC50 [3, 4]: 100 to 1000 nM
SMILES: O=c1[nH]c(-c2ccc3noc(-c4cccc(OC5CCN(C6COC6)CC5)c4)c3c2)no1 [Cmpd 134]

- IC50 [1, 4]: 100 to 1000 nM
- IC50 [2, 4]: 100 to 1000 nM
- IC50 [3, 4]: 10 to 100 nM
SMILES: O=c1[nH]c(-c2ccc3noc(-c4cccc(OC5CCN(CCO)CC5)c4)c3c2)no1 [Cmpd 135]

- IC50 [1, 4]: 100 to 1000 nM
- IC50 [2, 4]: 100 to 1000 nM
- IC50 [3, 4]: 10 to 100 nM
SMILES: O=C(Nc1ccc(-c2onc3ccc(-c4noc(=O)[nH]4)cc23)cc1)[C@@H]1CCCN1 [Cmpd 136]

- IC50 [1, 4]: 100 to 1000 nM
- IC50 [2, 4]: 1000 to 100000 nM
- IC50 [3, 4]: 100 to 1000 nM
SMILES: O=C(Nc1ccc(-c2onc3ccc(-c4noc(=O)[nH]4)cc23)cc1)C1CNC1 [Cmpd 137]

- IC50 [1, 4]: 100 to 1000 nM
- IC50 [2, 4]: 10 to 100 nM
- IC50 [3, 4]: 10 to 100 nM
SMILES: O=C(C1CC1)N1CCC(Oc2cccc(-c3onc4ccc(-c5noc(=O)[nH]5)cc34)c2)CC1 [Cmpd 138]

- IC50 [1, 4]: 100 to 1000 nM
- IC50 [2, 4]: 10 to 100 nM
- IC50 [3, 4]: 100 to 1000 nM
SMILES: CC1(C(=O)N2CCC(Oc3cccc(-c4onc5ccc(-c6noc(=O)[nH]6)cc45)c3)CC2)COC1 [Cmpd 139]

- IC50 ([1]; enzyme-coupled assay, Table 1): 100 to 1000 nM
- IC50 ([2]; enzyme-coupled assay, Table 1): 1000 to 100000 nM
SMILES: COc1ccc(-c2onc3ccc(/C=C/C(=O)O)cc23)cc1 [Compound 13]

- IC50 ([1]; enzyme-coupled assay, Table 2): 1000 to 100000 nM
- IC50 ([2]; enzyme-coupled assay, Table 2): 100 to 1000 nM
SMILES: O=C(O)c1ccc2noc(-c3ccc(OC(F)(F)F)cc3)c2c1 [Compound 23]

- IP6K1 IC50 ([1]; enzyme-coupled assay, Table 2): −
- IP6K2 IC50 ([2]; enzyme-coupled assay, Table 2): −
- IPMK IC50 ([3]; enzyme-coupled assay, Table 2): −
SMILES: O=C(O)c1ccc2noc(-c3ccc(C(=O)NCCN4CCOCC4)cc3)c2c1 [Compound 41]

- IC50 ([1]; enzyme-coupled assay, Table 2): 1000 to 100000 nM
- IC50 ([2]; enzyme-coupled assay, Table 2): 1000 to 100000 nM
- IPMK IC50 ([3]; enzyme-coupled assay, Table 2): −
SMILES: O=C(O)c1ccc2noc(-c3ccc(NC(=O)C4CCNCC4)cc3)c2c1 [Compound 48]

- IC50 ([1]; enzyme-coupled assay, Table 2): 100 to 1000 nM
- IC50 ([2]; enzyme-coupled assay, Table 2): 100 to 1000 nM
- IC50 ([3]; enzyme-coupled assay, Table 2): 10 to 100 nM
SMILES: O=C(O)c1ccc2noc(-c3cccc(NC(=O)C4CCCC4)c3)c2c1 [Compound 49]

- IC50 ([3]; enzyme-coupled assay, Table 3): 10 to 100 nM
SMILES: O=C(O)c1ccc2noc(-c3ccc(-c4cccnc4)cc3)c2c1 [Compound 57]
